Reference: patent US20250041247A1, “SMALL MOLECULE INHIBITORS OF REPEAT ASSOCIATED NON-AUG (RAN) TRANSLATION AND COMBINATION THERAPIES” (University of Florida Research Foundation, Incorporated, priority 2021, published 2025)

Key:
poly-Ala RAN proteins = experiment: Protein blots for poly-Ala RAN proteins in HEK293T cells transfected with CAG expansion constructs; format: cell-based; conditions: treatment with different concentrations of quercetin, or metformin
Excerpt: cDNA constructs. […] Antibodies. […] Western blotting. […] Quantification and statistical analysis.

[1] = test system: C9orf72 ALS/FTD mice (C9); experiment: DigiGait gait analysis; format: in vivo; conditions: 18 week female mice
Protocol: Gait analysis. Digital video images of the underside of the mouse were collected with a high-speed video camera from below the transparent belt of a motorized treadmill (DigiGait™ Imaging system, Mouse Specific). Female C9orf72 ALS/FTD mice (C9) mice and their littermates (non-transgenic mice (NT)) were tested at 18 weeks of age with treatment beginning at 8 weeks of age. Each mouse was allowed to explore the treadmill compartment with the motor speed set to 14 cm/s for 1 min, then the motor speed was increased to 24c m/s for video recording. Only video recordings in which the mouse walked straight ahead with a constant relative position with respect to the camera were used for analysis. Data from each hind paw was analyzed with DigiGait automated gait analysis software (Mouse Specifics). For additional details, see Neuron, 2016, 90(3), 521-34. doi: 10.1016/j.neuron.2016.04.005. Mock treatment is vehicle only, meaning chow without quercetin.

[2] = Quercetin-NT vs Quercetin C9, significance

## CN(C)C(=N)NC(=N)N [metformin]
poly-Ala RAN proteins
  polyAla RAN proteins expressed from (CAG)exp: reduction

## O=c1c(O)c(-c2ccc(O)c(O)c2)oc2cc(O)cc(O)c12 [quercetin]
[1]; DigiGait, treatment beginning at 8 weeks, quercetin in chow
  13 gait abnormalities found between C9orf72 ALS/FTD mice (C9) vs. non-transgenic (NT) mice: corrected
[1]; [2]
  Absolute PawAngle (deg): ns
  Ataxia Coefficient (real#): ns
  Axis Distance (cm/s): ns
  Brake (s): ns
  BrakeStance (%): ns
  BrakeStride (%): ns
  Gait Symmetry (real#): ns
  Hind Limb Shared Stance Time (s): ns
  MAX dA/dT (cm^2/s): ns
  MIN dA/dT (cm^2/s): ns
  Midline Distance (cm): ns
  Overlap Distance (cm): ns
  Paw Angle Variability (deg): ns
  Paw Area Variability at Peak Stance in sq. cm (cm^2): ns
  Paw Area at Peak Stance in sq. cm (cm^2): ns
  Paw Drag (real#): ns
  PawAngle (deg): ns
  PawPlacementPositioning[PPP] (cm): ns
  Propel (s): ns
  PropelStance (%): ns
  PropelStride (%): ns
  SLVar (cm): ns
  SWVar (cm): ns
  Shared Stance (%): ns
  Stance (s): ns
  Stance/Swing (real#): ns
  StanceFactor (real#): ns
  StanceStride (%): ns
  StanceWidth (cm): ns
  StepAngle (deg): ns
  StepAngle Var (deg): ns
  Steps (real#): ns
  Stride (s): ns
  Stride Frequency (steps/s): ns
  StrideLength (cm): ns
  Swing (%): ns
  SwingStride (%): ns
  Tau - Propulsion (real#): ns
poly-Ala RAN proteins
  polyAla RAN proteins expressed from (CAG)exp: reduction
